What was measured:
Assay type in all cases: in vivo, human
PDGF-AA = assay: Plasma biomarker PDGF-AA; conditions: for PDGF-AA raw data, Mean (SD) / PDGF-AA least square means % baseline±SEM: IPF patients
Experimental: (§1) All patients, investigators, sites and study sponsor personnel were blinded to the study group assignments throughout the study. Patients underwent study-specific assessments on days 2, 3, 7, 14 and 15, and a post-study assessment was carried out 26–30 days after the last day of the study period. Assessments included vital signs (supine blood pressure, pulse, oxygen saturation, oral temperature and respiratory rate), spirometry, 12-lead ECG, physical examination, laboratory safety screen (haematology, biochemistry, urinalysis and urinary drugs of abuse screen) and blood sampling for PK measurements. All adverse events and concomitant medications were recorded from the time of the screening visit until the post-study follow-up visit. BAL was performed at day −1 (24 h before the first dose) and at day 14 (2 h after the last dose). The BAL procedure was performed as per international guidelines. Briefly, 240 mL of 0.9% saline at room temperature was instilled in 40 mL aliquots into the right middle lobe and aspirated by suction after each aliquot.
(§2) BAL cells were separated from fluid by centrifugation, and cells were collected, stained with antibodies (supplementary material) and then fixed before analysis using a LSR Fortessa flow cytometer (Becton Dickinson, Franklin Lakes, NJ, USA). Data were analysed using FlowJo software (Tree Star, Ashland, OR, USA). Macrophages were identified as having high side scatter properties and human leukocyte antigen-DR positivity. Gal-3 expression (mean fluorescence intensity) was determined from the macrophage gate (supplementary figures S1 and S2). […] Samples were analysed by magnetic Luminex assay (R&D Systems, Minneapolis, MN, USA) or ELISA.
(§3) For part 2 of the study, placebos were combined from the three dose-specific cohorts into a pooled control group (n=9). For alveolar macrophage Gal-3 expression and the plasma biomarkers, ANCOVA was performed for percentage of baseline ((day 14/day 1)×100). The ANCOVA model included effects for treatment group and baseline (day 1) value. […] An additional analysis including dose as a continuous covariate was also performed. The Pearson correlation coefficient (r) and associated p-value were calculated for percentage of baseline and day 14 values between plasma biomarkers and alveolar macrophage Gal-3 expression. […] The analysis is exploratory and there was no pre-planned adjustment for multiple testing; the study was not powered for this. Alveolar macrophage Gal-3 expression was considered the primary exploratory analysis with the pre-selected biomarkers secondary. A Bonferroni correction for multiple testing of the secondary end-points comparing the 10 mg group with placebo gives a critical value of 0.0063. Data are presented as the difference in least square means with 95% confidence interval and p-value unless otherwise stated. All analyses were performed using SAS version 9.4 (SAS Institute, Cary, NC, USA). […]

CCL18 (PARC) = assay: Plasma biomarker CCL18; conditions: IPF patients
Experimental: as §1, §2, §3

patients with IPF = assay: Safety and tolerability (TEAEs), part 2, once-daily inhaled dose for 14 days
From the text: Following completion of dosing for the final subject in each dosing cohort, an interim dose review meeting was held with a safety committee consisting of the principal investigator, medical monitor, pharmacokineticist and statistician to review the safety, tolerability and PK data (study design schematic shown in figure 1). The study statistician and pharmacokineticist were unblinded at the end of each cohort in order to conduct the analyses required for dose review decisions. The primary end-point was the safety and tolerability of single or multiple doses of TD139 in healthy subjects or IPF patients, respectively.

[1] = IPF patients, inhaled 0.3 mg once daily 14 days
[2] = IPF patients, inhaled 3 mg once daily 14 days
[3] = IPF patients, inhaled 10 mg once daily 14 days

OC[C@H]1O[C@@H](S[C@@H]2O[C@H](CO)[C@H](O)[C@H](n3cc(-c4cccc(F)c4)nn3)[C@H]2O)[C@H](O)[C@@H](n2cc(-c3cccc(F)c3)nn2)[C@H]1O [TD139]
PDGF-AA difference in least square means % baseline (95% CI) (PDGF-AA; 10 mg vs placebo, ANCOVA): −129.7 (−295.3–35.8) % baseline
PDGF-AA raw data, Mean (SD) (PDGF-AA; Day 14, 0.3 mg): 1299.7 (754.57) pg/ml
PDGF-AA raw data, Mean (SD) (PDGF-AA; Day 14, 3 mg): 4075.9 (5511.46) pg/ml
PDGF-AA raw data, Mean (SD) (PDGF-AA; Day 14, 10 mg): 2556.7 (987.79) pg/ml
PDGF-AA least square means % baseline±SEM (PDGF-AA; day 14, 0.3 mg once daily): 61.7±60.6 % baseline
PDGF-AA least square means % baseline±SEM (PDGF-AA; day 14, 3 mg once daily): 117.1±62.1 % baseline
PDGF-AA least square means % baseline±SEM (PDGF-AA; day 14, 10 mg once daily): 83.6±61.2 % baseline
CCL18 (PARC) raw data, Mean (SD) (CCL18 (PARC); Day 14, 0.3 mg): 79733.8 (25166.88) pg/ml
CCL18 (PARC) raw data, Mean (SD) (CCL18 (PARC); Day 14, 3 mg): 73022.7 (33487.12) pg/ml
CCL18 (PARC) raw data, Mean (SD) (CCL18 (PARC); Day 14, 10 mg): 53456.8 (11339.99) pg/ml
CCL18 (PARC) least square means % baseline±SEM (CCL18 (PARC); day 14, 0.3 mg once daily): 89.6±11.8 % baseline
CCL18 (PARC) least square means % baseline±SEM (CCL18 (PARC); day 14, 3 mg once daily): 98.9±12.0 % baseline
CCL18 (PARC) least square means % baseline±SEM (CCL18 (PARC); day 14, 10 mg once daily): 74.6±11.8 % baseline
Subjects reporting ≥1 TEAE: Serious TEAE (patients with IPF; [1]): 0 n (%)
Subjects reporting ≥1 TEAE: TEAE (patients with IPF; [1]): 4 (80.0) n (%)
Subjects reporting ≥1 TEAE: TEAE leading to withdrawal (patients with IPF; [1]): 0 n (%)
Subjects with TEAE by relationship to study IMP: Almost definite (patients with IPF; [1]): 0 n (%)
Subjects with TEAE by relationship to study IMP: Possible (patients with IPF; [1]): 1 (20.0) n (%)
Subjects with TEAE by relationship to study IMP: Probable (patients with IPF; [1]): 0 n (%)
Subjects with TEAE by relationship to study IMP: Unlikely (patients with IPF; [1]): 1 (20.0) n (%)
Subjects with TEAE by relationship to study IMP: Unrelated (patients with IPF; [1]): 2 (40.0) n (%)
Subjects with TEAE by severity: Mild (patients with IPF; [1]): 2 (40.0) n (%)
Subjects with TEAE by severity: Moderate (patients with IPF; [1]): 2 (40.0) n (%)
Subjects with TEAE by severity: Severe (patients with IPF; [1]): 0 n (%)
TEAEs (patients with IPF; [1]): 9 n
Subjects reporting ≥1 TEAE: Serious TEAE (patients with IPF; [2]): 0 n (%)
Subjects reporting ≥1 TEAE: TEAE (patients with IPF; [2]): 5 (100.0) n (%)
Subjects reporting ≥1 TEAE: TEAE leading to withdrawal (patients with IPF; [2]): 0 n (%)
Subjects with TEAE by relationship to study IMP: Almost definite (patients with IPF; [2]): 0 n (%)
Subjects with TEAE by relationship to study IMP: Possible (patients with IPF; [2]): 1 (20.0) n (%)
Subjects with TEAE by relationship to study IMP: Probable (patients with IPF; [2]): 0 n (%)
Subjects with TEAE by relationship to study IMP: Unlikely (patients with IPF; [2]): 1 (20.0) n (%)
Subjects with TEAE by relationship to study IMP: Unrelated (patients with IPF; [2]): 3 (60.0) n (%)
Subjects with TEAE by severity: Mild (patients with IPF; [2]): 4 (80.0) n (%)
Subjects with TEAE by severity: Moderate (patients with IPF; [2]): 1 (20.0) n (%)
Subjects with TEAE by severity: Severe (patients with IPF; [2]): 0 n (%)
TEAEs (patients with IPF; [2]): 10 n
Subjects reporting ≥1 TEAE: Serious TEAE (patients with IPF; [3]): 1 (20.0) n (%)
Subjects reporting ≥1 TEAE: TEAE (patients with IPF; [3]): 4 (80.0) n (%)
Subjects reporting ≥1 TEAE: TEAE leading to withdrawal (patients with IPF; [3]): 0 n (%)
Subjects with TEAE by relationship to study IMP: Almost definite (patients with IPF; [3]): 0 n (%)
Subjects with TEAE by relationship to study IMP: Possible (patients with IPF; [3]): 0 n (%)
Subjects with TEAE by relationship to study IMP: Probable (patients with IPF; [3]): 0 n (%)
Subjects with TEAE by relationship to study IMP: Unlikely (patients with IPF; [3]): 2 (40.0) n (%)
Subjects with TEAE by relationship to study IMP: Unrelated (patients with IPF; [3]): 2 (40.0) n (%)
Subjects with TEAE by severity: Mild (patients with IPF; [3]): 1 (20.0) n (%)
Subjects with TEAE by severity: Moderate (patients with IPF; [3]): 2 (40.0) n (%)
Subjects with TEAE by severity: Severe (patients with IPF; [3]): 1 (20.0) n (%)
TEAEs (patients with IPF; [3]): 13 n
safety and tolerability (patients with IPF; IPF patients, multiple inhaled doses up to 10 mg): safe and well tolerated
TEAE profile, biochemistry, haematology, vital signs or 12-lead ECG data (patients with IPF; part 2, IPF patients): no treatment- or dose-related trends observed
patients with a TEAE considered possibly related to the study drug (patients with IPF; part 2, diarrhoea and dysgeusia/oropharyngeal pain): two
